Data taken from patent publication US20190374647A1, “STABLE LIPOSOMES FOR DRUG DELIVERY” (YISSUM RESEARCH DEVELOPMENT COMPANY OF THE HEBREW …, priority 2012, published 2019).
Where a name gives a salt, the structure may show the parent alone. Marks after values point to notes of the source that are not given here. One block for each molecule: values may come before it.

Key:
[1] = Doxorubicin accelerated chemical stability in ammonium-anion salt solutions; assay type: physicochemical; settings: 4 hours at 70° C.; for Additional peaks: HPLC
Procedure: For accelerated stability the, chemical stability of doxorubicin in various ammonium-anions salts solutions was tested. Briefly, doxorubicin (2 mg/ml) was dissolved in various ammonium-anions salt solutions and incubated for 4 hours at the temperature of 70° C. At the end of 4 hours incubation doxorubicin concentration and the presence of doxorubicin degradation products were analyzed by HPLC using Agilent 1100 according to following protocol: Mobile phase: 50% MeOH, 40% phosphate buffer, pH=4, 10% Acetonitrile and 2% TEA Column: Phenomenex, Luna, C-18, Flow: 1 ml/min, detection wavelength 254 and 480 nm.

[2] = cited from earlier work
[3] = Doxorubicin remote loading encapsulation efficiency and short stability; assay type: physicochemical; settings: for Encapsulation % (T0): doxorubicin
Procedure: In this stage the efficiency of remote loading encapsulation and encapsulation stability were studied. Liposomes were prepared as described above. […] All formulations were made from HSPC:Cholesterol:PEG-DSPE mole ratio of 54.5:41:4.5, briefly the lipids were hydrated and suspended in the various ammonium ions to form MLV. The MLV were downsized by extrusion followed by dialysis to remove external ammonium salt and form the gradient, finally drug was remote loaded into the gradient liposomes.

[4] = Topotecan remote loading encapsulation efficiency; assay type: physicochemical; settings: 4 days storage at 5° C.
Procedure: Remote loading of topotecan were performed in the same way as the experiments described in Table 4 and Table 5 below for doxorubicin remote loading except that the drug concentration was determined from its absorbance at a wave length of 370 nm (which is the wavelength of maximum absorbance of topotecan).

[5] = OVCAR-3 xenograft study, tolerability (body weight, clinical signs); assay type: in vivo
Procedure: (§1) G1 animals served as vehicle control and received 5 ml/kg saline. 2, G5 and G6 animals were treated with 8 mg/kg doxorubicin HCl, LC3-PLDMS-2 (PLMDS-2 are liposomes containing 250 mM ammonium methanesulfonate (MS) and remote loaded with doxorubicin (group 5 in the experiment), LC4_PLDMS-5 are liposomes containing 500 mM ammonium methanesulfonate (MS) and remote loaded with doxorubicin (group 6 in the experiment) (respectively, given intravenously (5 mL/kg dose volume) once weekly for 2 consecutive weeks. Body weight, general clinical observations and tumor size were monitored throughout the experimental period. Experimental groups were terminated when median tumor volume reached 2500 mm^3. Endpoint parameters such as body weight change, % ILS, Median tumor volume, TGI, % T/C, RTV, LCK, Tumor growth delay, TVDT and TVDTD were calculated. Tumor volumes were measured twice weekly using a digital vernier caliper recording length (L=longest axis) and width (W=shortest axis), and volume was calculated in mm^3 as L×W^2/2. Groups reaching a median tumor volume of 2500 mm^3 were terminated and the date of termination was used as the date of death for the purpose of survival calculations. The following parameters were calculated: median survival time (MST), percentage increased life span (% ILS) and median tumor volume (TV). Other measured, including median TV change; median tumor growth inhibition (TGI); % T/C; relative tumor volume (RTV); log cell kill (LCK); tumor growth delay; tumor volume doubling time (TVDT); and tumor volume doubling time delay (TVDTC), were derived from the median tumor volume measurements. Tumor growth regression was also plotted.
(§2) Mice bearing growing tumor were selected and randomized into 4 groups containing 8 animals in each based on a mean tumor size of ˜100 mm3. G1 animals served as vehicle control and received 5 ml/kg saline whereas G2, G5 and G6 animals received Doxorubicin HCl, LC3-PLDMS-2 or LC4-PLDMS-5, respectively, at a dose of 8 mg/kg. All the animals were dosed intravenously at the dose volume of 5 ml/kg weekly once for two weeks. Body weight, general clinical observations and tumor volume parameters were recorded during the experimental period. Groups reaching median tumor volume of 2500 mm^3 were terminated.
The body weight of each mouse was recorded at the time of randomization, on alternate days during dosing period and post-dosing period until the end of the study.

[6] = test system: human OVCAR-3 ovarian adenocarcinoma cells; assay: OVCAR-3 ovarian adenocarcinoma xenograft, anti-tumor efficacy; assay type: in vivo, athymic nude mice
Procedure: Female athymic nude mice were inoculated subcutaneously in the left flank with a suspension of 5×10^6 human OVCAR-3 ovarian adenocarcinoma cells (200 µL injection volume) and monitored for tumor growth. Animals were selected, randomized into four treatment groups (n=8 per group) with a balanced tumor size of ˜100 mm^3 according to the study design (Table 9) below.
as §1, §2
For preparation and administration of reference and test item, all the test items are ready to use formulations. The strength of test formulation is 2 mg/ml of doxorubicin HCl in sterile 5 ml vial. 2 ml of reference or test item formulation (i.e. Doxorubicin HCl, LC3-PLDMS-2 and LC4-PLDMS-5) was diluted to 0.5 ml normal saline to achieve 1.6 mg/ml. 100 μL of final test formulation was injected intravenously to 20 g of mouse to achieve the 8 mg/kg dose. Group G1 animals received normal saline at the dose volume of 5 ml/kg.

[7] = Doxorubicin solubility in ammonium salt solutions; assay type: physicochemical
[8] = Blood levels of doxorubicin in mice after single I.V. dose; assay type: in vivo, Balb/c mice; settings: after 48 hours, FIG. 3
Procedure: At defined time-points (see Table 8 below, for composition of each formulation see Tables 5 and 6), mice of each group were euthanized with CO2 and terminal blood was withdrawn from the retro-orbital sinus and collected in labeled K3EDTA tubes. The blood samples were then immediately subjected to plasma separation procedure (4000 rpm for 10 minutes at 4° C.). The plasma, red blood cells fraction and whole blood of each mouse has been collected in labeled CryoTubes and stored at −80° C. pending analysis. Doxorubicin was extracted from the samples as follows. […] From the upper phase, 100 μl of the plasma diluted in A-IPA were diluted in 900 μl mobile phase for analysis and the contents of extracted doxorubicin was determined using fluorescence HPLC (as described in Gabizon et al. (1993) Pharm. Research 10(5):703-708).

[9] = counter anion 500 mM, salt pH 6.2
[10] = counter anion 250 mM, salt pH 5.5
[11] = counter anion 500 mM, salt pH 5.5
[12] = 8 mg/kg i.v. once weekly for 2 weeks
[13] = counter anion 500 mM, salt pH 5.53

Molecule: O=S(=O)(O)O [Sulfate]
Assay loss (%) at 254 nm [1]: <15% | Additional peaks [1]: no

Molecule: O=S(=O)(O)CCCO [3-HydroxyPropane-1-Sulfonate]
LogP (acid) [2]: −2.59 | LogD (acid)- at pH = 5.5 [2]: −5.39

Molecule: Ethanesulfonate
LogP (acid) [2]: −1.577 | LogD (acid)- at pH = 5.5 [2]: −4.85

Molecule: Lactate
Encapsulation % Short stability 5° C. After one week [3, 9]: 48.68% | Encapsulation % (T0) ([3]; counter anion 250 mM, salt pH 4.5): 18.37% | Encapsulation % (T0) [3, 10]: 23.42% | Encapsulation % (T0) [3, 9]: 101.95%

Encapsulation % Short stability 5° C. After one week ([3]; counter anion 500 mM, salt pH 6): 15.38%
Molecule: CC(=O)C(=O)O [Pyruvate]
LogP (acid) [2]: −1.24 | LogD (acid)- at pH = 5.5 [2]: −4.04

Molecule: O=C(O)[C@H](O)[C@@H](O)[C@H](O)[C@H](O)CO [Gluconate]
LogP (acid) [2]: −2.116 | LogD (acid)- at pH = 5.5 [2]: −4.83

Molecule: Tartarate
LogP (acid) [2]: −1.081

Encapsulation % (T0) [3, 10]: 36.23% | Encapsulation % (T0) [3, 11]: 22.55%
Molecule: Maleate

encapsulation efficiency (loading) ([4]; topotecan HCl 1.3 mg/ml, ammonium 350 mM, methanesulfonate 350 mM counter anion): 94% | encapsulation efficiency (loading) ([4]; topotecan HCl, 500 mM ammonium, 250 mM sulfate counter anion): 93%
Molecule: CC[C@@]1(O)C(=O)OCc2c1cc1n(c2=O)Cc2cc3c(CN(C)C)c(O)ccc3nc2-1 [topotecan]

Molecule: COc1cccc2c1C(=O)c1c(O)c3c(c(O)c1C2=O)C[C@@](O)(C(=O)CO)C[C@@H]3O[C@H]1C[C@H](N)[C@H](O)[C@H](C)O1 [Doxorubicin HCl]
Mean Body Weight ([5]; Day 22): 22.4 g | Mean Percentage Change in Body Weight ([5]; Day 22): 0.0% | Mean Body Weight ([5]; Day 24): 22.1 g | Mean Percentage Change in Body Weight ([5]; Day 24): −1.6% | Mean Body Weight ([5]; Day 26): 21.6 g | Mean Percentage Change in Body Weight ([5]; Day 26): −3.7% | Mean Body Weight ([5]; Day 28): 21.8 g | Mean Percentage Change in Body Weight ([5]; Day 28): −2.9% | Mean Body Weight ([5]; Day 30): 21.5 g | Mean Percentage Change in Body Weight ([5]; Day 30): −4.1% | Mean Body Weight ([5]; Day 32): 21.4 g | Mean Percentage Change in Body Weight ([5]; Day 32): −4.7% | Mean Body Weight ([5]; Day 34): 21.1 g | Mean Percentage Change in Body Weight ([5]; Day 34): −6.1% | Mean Body Weight ([5]; Day 36): 20.9 g | Mean Percentage Change in Body Weight ([5]; Day 36): −6.6% | Mean Body Weight ([5]; Day 38): 20.8 g | Mean Percentage Change in Body Weight ([5]; Day 38): −7.4% | Mean Body Weight ([5]; Day 40): 20.6 g | Mean Percentage Change in Body Weight ([5]; Day 40): −8.0% | Mean Body Weight ([5]; Day 42): 20.6 g | Mean Percentage Change in Body Weight ([5]; Day 42): −8.1% | Mean Body Weight ([5]; Day 44): 20.5 g | Mean Percentage Change in Body Weight ([5]; Day 44): −8.5% | Mean Body Weight ([5]; Day 46): 20.5* g | Mean Percentage Change in Body Weight ([5]; Day 46): −8.6% | Mean Body Weight ([5]; Day 48): 20.8* g | Mean Percentage Change in Body Weight ([5]; Day 48): −7.3% | Mean Body Weight ([5]; Day 50): 20.9* g | Mean Percentage Change in Body Weight ([5]; Day 50): −6.9% | Mean Body Weight ([5]; Day 52): 21.1* g | Mean Percentage Change in Body Weight ([5]; Day 52): −6.0% | Mean Body Weight ([5]; Day 56): 21.4 g | Mean Percentage Change in Body Weight ([5]; Day 56): −4.7% | Mean Body Weight ([5]; Day 59): 21.8 g | Mean Percentage Change in Body Weight ([5]; Day 59): −2.9% | Mean Body Weight ([5]; Day 63): 22.1 g | Mean Percentage Change in Body Weight ([5]; Day 63): −1.3% | maximum body weight loss ([5]; G2 on day 46, other groups on day 32 / 34 as printed): −8.6% | body weight gain by the end of experiment ([5]; mouse, in vivo): no body weight gain was observed | % Increased Life Span (% ILS) [6, 12]: 21.2% | Mean TVDT [6, 12]: 7 days | Median Survival Time (MST) [6, 12]: 63 | median life span [6, 12]: 63 days | Log Cell Kill Value ([6]; 8 mg/kg i.v. once weekly for 2 weeks, derived from median tumor volume): 0.40 | Median Tumor Volume ([6]; Day 22): 110.9 mm^3 | Median Tumor Volume ([6]; Day 24): 128.6 mm^3 | Median Tumor Volume ([6]; Day 26): 145.8 mm^3 | Median Tumor Volume ([6]; Day 28): 173.8 mm^3 | Median Tumor Volume ([6]; Day 30): 194.7 mm^3 | Median Tumor Volume ([6]; Day 32): 215.5 mm^3 | Median Tumor Volume ([6]; Day 34): 252.9 mm^3 | Median Tumor Volume ([6]; Day 36): 311.1 mm^3 | Median Tumor Volume ([6]; Day 38): 379.4 mm^3 | Median Tumor Volume ([6]; Day 40): 453.8 mm^3 | Median Tumor Volume ([6]; Day 42): 550.9 mm^3 | Median Tumor Volume ([6]; Day 44): 673.4 mm^3 | Median Tumor Volume ([6]; Day 46): 802.4 mm^3 | Median Tumor Volume ([6]; Day 48): 1006.1 mm^3 | Median Tumor Volume ([6]; Day 50): 1218.8 mm^3 | Median Tumor Volume ([6]; Day 52): 1430.3 mm^3 | Median Tumor Volume ([6]; Day 56): 1799.5 mm^3 | Median Tumor Volume ([6]; Day 59): 2192.6 mm^3 | Median Tumor Volume ([6]; Day 63): 2699.3 mm^3 | higher solubility of the methanesulfonate form versus ammonium sulfate [7]: at least 35 fold | solubility of doxorubicin in 250 mM ammonium alkyl or aryl sulfonate relative to 250 mM ammonium sulfate [7]: approximately 30 fold | precipitation in the presence of alkyl or aryl sulfonate ions ([7]; 70 mM): did not precipitate | concentration at which doxorubicin precipitates ([7]; in the presence of sulfate ions (ammonium sulfate)): less than 2 mM | drug levels in blood in comparison to Doxil® [8]: below limit of detection

Encapsulation % (T0) [3, 11]: 41.19%
Molecule: O=C(O)CO [Glycolate]
LogP (acid) [2]: −1.204

Molecule: Methanesulfonate
LogP (acid) [2]: −2.087 | LogD (acid)- at pH = 5.5 [2]: −5.39 | Encapsulation % Short stability 5° C. After one week [3, 13]: 110.66% | Encapsulation % (T0) [3, 13]: 106.32% | Assay loss (%) at 254 nm [1]: <15% | Additional peaks [1]: no

Molecule: O=C(O)[C@H]1OC(O)[C@H](O)[C@@H](O)[C@@H]1O (mixture of isomers) [Glucuronate]
Log P (log D at pH=5.5) value quoted in text [2]: < −2.3 | LogD (acid)- at pH = 5.5 [2]: −5.38
